biological target: purified human Factor XIa (Homo sapiens (Human), UniProt P03951); assay: Factor XIa chromogenic substrate (S-2366) inhibition assay; format: biochemical; details: substrate S-2366, Table 1
Method: The effectiveness of compounds of the present invention as inhibitors of the coagulation factors XIa, VIIa, IXa, Xa, XIIa, plasma kallikrein or thrombin, can be determined using a relevant purified serine protease, respectively, and an appropriate synthetic substrate. The rate of hydrolysis of the chromogenic or fluorogenic substrate by the relevant serine protease was measured both in the absence and presence of compounds of the present invention. […] A decrease in the rate of absorbance or fluorescence change in the presence of inhibitor is indicative of enzyme inhibition. Such methods are known to one skilled in the art. The results of this assay are expressed as the inhibitory constant, Ki. […] JT Baker or Fisher Scientific). […] Values of Ki were determined by allowing the protease to react with the substrate in the presence of the inhibitor. Reactions were allowed to go for periods of 20-180 minutes (depending on the protease) and the velocities (rate of absorbance or fluorescence change versus time) were measured.

Chain of purified human Factor XIa (P03951 388-625): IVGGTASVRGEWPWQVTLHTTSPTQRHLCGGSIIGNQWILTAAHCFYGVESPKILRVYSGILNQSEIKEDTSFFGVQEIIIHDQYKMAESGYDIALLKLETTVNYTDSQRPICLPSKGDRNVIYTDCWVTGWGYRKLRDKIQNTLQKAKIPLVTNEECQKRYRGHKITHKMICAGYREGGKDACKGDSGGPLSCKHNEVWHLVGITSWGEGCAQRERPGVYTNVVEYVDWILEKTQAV
Chain of purified human Factor XIa (P03951 19-387 partner): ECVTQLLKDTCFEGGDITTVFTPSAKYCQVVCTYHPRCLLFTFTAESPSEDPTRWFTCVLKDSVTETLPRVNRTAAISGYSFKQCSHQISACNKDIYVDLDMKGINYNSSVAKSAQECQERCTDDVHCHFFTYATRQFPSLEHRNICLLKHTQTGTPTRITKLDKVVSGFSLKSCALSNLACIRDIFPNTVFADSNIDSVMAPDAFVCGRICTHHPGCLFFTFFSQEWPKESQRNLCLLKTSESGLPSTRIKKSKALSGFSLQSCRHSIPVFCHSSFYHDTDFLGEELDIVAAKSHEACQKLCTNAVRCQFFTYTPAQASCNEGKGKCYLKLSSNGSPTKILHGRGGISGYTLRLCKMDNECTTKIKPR

SMILES	Ki [nM]
O=C(O)c1ccc(NC(=O)C2c3cccc(N4CCN(C(=O)OCc5ccccc5)CC4=O)c3CCN2C(=O)/C=C/c2c(-n3cnnn3)ccc(Cl)c2F)cc1 (racemic) [Example 52]	< 5
CCOC(=O)c1ccc(NC(=O)C2c3cccc(N4CCOCC4)c3CCN2C(=O)/C=C/c2c(-n3cnnn3)ccc(Cl)c2F)cc1 (racemic) [Example 63]	34.5
CCNC(=O)c1ccc(NC(=O)C2c3cccc(N4CCNCC4)c3CCN2C(=O)/C=C/c2cc(Cl)c(F)cc2-n2cnnn2)cc1 (racemic) [Example 71]	492

The next lines start with the values.

Ki [nM]	SMILES
4620	O=C(NC1CCCNC1)C1c2cccc(N3CCC(N4CCCC4)CC3)c2CCN1C(=O)C=Cc1c(-n2cnnn2)ccc(Cl)c1F (mixture of isomers) [Example 237]
< 5	O=C(O)c1ccc(NC(=O)C2c3cccc(N4CCC(C(=O)N5CCCC5)CC4)c3CCN2C(=O)/C=C/c2c(-n3cnnn3)ccc(Cl)c2F)cc1 (racemic) [Example 131]

same assay, conditions: substrate S-2366, activity ranges, Table A

SMILES	Ki [nM]
O=C(Nc1ccc2cn[nH]c2c1)C1c2cccc(N3CCOCC3=O)c2CCN1C(=O)/C=C/c1c(-n2cnnn2)ccc(Cl)c1F (racemic) [Example 47]	< 5
CCOC(=O)c1ccc(NC(=O)C2c3cccc(N4CCOCC4=O)c3CCN2C(=O)/C=C/c2c(-n3cnnn3)ccc(Cl)c2F)cc1 (racemic) [Example 51]	5 to 10
CC(C)(C)OC(=O)c1ccc(NC(=O)C2c3cccc(N4CCN(C(=O)OC(C)(C)C)CC4=O)c3CCN2C(=O)/C=C/c2c(-n3cnnn3)ccc(Cl)c2F)cc1 (racemic) [Example 55]	100 to 500
CCOC(=O)c1ccc(NC(=O)C2c3cccc(N4CCN(C(=O)OC(C)(C)C)CC4=O)c3CCN2C(=O)/C=C/c2c(-n3cnnn3)ccc(Cl)c2F)cc1 (racemic) [Example 56]	5 to 10
COC(=O)Nc1ccc(NC(=O)C2c3cccc(N4CCOCC4)c3CCN2C(=O)/C=C/c2c(-n3cnnn3)ccc(Cl)c2F)cc1 (racemic) [Example 58]	100 to 500
CC(C)(C)OC(=O)c1ccc(NC(=O)C2c3cccc(N4CCOCC4)c3CCN2C(=O)/C=C/c2c(-n3cnnn3)ccc(Cl)c2F)cc1 (racemic) [Example 59]	5 to 10
O=C(NC1CC1)c1ccc(NC(=O)C2c3cccc(N4CCNCC4)c3CCN2C(=O)/C=C/c2cc(Cl)c(F)cc2-n2cnnn2)cc1 (racemic) [Example 67]	100 to 500
O=C(NCCc1c[nH]cn1)c1ccc(NC(=O)C2c3cccc(N4CCNCC4)c3CCN2C(=O)/C=C/c2cc(Cl)c(F)cc2-n2cnnn2)cc1 (racemic) [Example 68]	100 to 500
O=C(Nc1ccccc1)c1ccc(NC(=O)C2c3cccc(N4CCNCC4)c3CCN2C(=O)/C=C/c2cc(Cl)c(F)cc2-n2cnnn2)cc1 (racemic) [Example 69]	100 to 500
CC(=O)Nc1ccc(NC(=O)c2ccc(NC(=O)C3c4cccc(N5CCNCC5)c4CCN3C(=O)/C=C/c3cc(Cl)c(F)cc3-n3cnnn3)cc2)cc1 (racemic) [Example 70]	100 to 500
CC(=O)NCCNC(=O)c1ccc(NC(=O)C2c3cccc(N4CCNCC4)c3CCN2C(=O)/C=C/c2cc(Cl)c(F)cc2-n2cnnn2)cc1 (racemic) [Example 72]	500 to 5000
NC(=O)CCNC(=O)c1ccc(NC(=O)C2c3cccc(N4CCNCC4)c3CCN2C(=O)/C=C/c2cc(Cl)c(F)cc2-n2cnnn2)cc1 (racemic) [Example 73]	500 to 5000
COC(=O)CNC(=O)c1ccc(NC(=O)C2c3cccc(N4CCNCC4)c3CCN2C(=O)/C=C/c2cc(Cl)c(F)cc2-n2cnnn2)cc1 (racemic) [Example 74]	100 to 500
COc1cccc(NC(=O)c2ccc(NC(=O)C3c4cccc(N5CCNCC5)c4CCN3C(=O)/C=C/c3cc(Cl)c(F)cc3-n3cnnn3)cc2)c1 (racemic) [Example 75]	100 to 500
CN(C)C(=O)c1ccc(NC(=O)C2c3cccc(N4CCNCC4)c3CCN2C(=O)/C=C/c2cc(Cl)c(F)cc2-n2cnnn2)cc1 (racemic) [Example 76]	500 to 5000
CNC(=O)c1ccc(NC(=O)C2c3cccc(N4CCNCC4)c3CCN2C(=O)/C=C/c2cc(Cl)c(F)cc2-n2cnnn2)cc1 (racemic) [Example 77]	100 to 500
O=C(Nc1ccc(F)cc1)C1c2cccc(N3CCC(N4CCCC4)CC3)c2CCN1C(=O)/C=C/c1c(-n2cnnn2)ccc(Cl)c1F (racemic) [Example 82]	< 5

Next, values leading:

Ki [nM]	SMILES
< 5	CCOC(=O)c1ccc(NC(=O)C2c3cccc(N4CCC(N5CCCC5)CC4)c3CCN2C(=O)/C=C/c2c(-n3cnnn3)ccc(Cl)c2F)cc1 (racemic) [Example 83]
< 5	CC(C)(C)OC(=O)c1ccc(NC(=O)C2c3cccc(N4CCC(N5CCCC5)CC4)c3CCN2C(=O)/C=C/c2c(-n3cnnn3)ccc(Cl)c2F)cc1 (racemic) [Example 84]
< 5	N#Cc1ccc(NC(=O)C2c3cccc(N4CCC(N5CCCC5)CC4)c3CCN2C(=O)/C=C/c2c(-n3cnnn3)ccc(Cl)c2F)cc1 (racemic) [Example 85]
< 5	COC(=O)Nc1ccc(NC(=O)C2c3cccc(N4CCC(N5CCCC5)CC4)c3CCN2C(=O)/C=C/c2c(-n3cnnn3)ccc(Cl)c2F)cc1 (racemic) [Example 89]
5 to 10	CN(C)C1CCN(c2cccc3c2CCN(C(=O)/C=C/c2c(-n4cnnn4)ccc(Cl)c2F)C3C(=O)Nc2ccc(C(=O)OC(C)(C)C)cc2)CC1 (racemic) [Example 91]
< 5	O=C(O)c1ccc(NC(=O)C2c3cccc(N4CCC(c5ccccc5)CC4)c3CCN2C(=O)/C=C/c2c(-n3cnnn3)ccc(Cl)c2F)cc1 (racemic) [Example 95]
< 5	O=C(O)c1ccc(NC(=O)C2c3cccc(N4CCC(N5CCCC5=O)CC4)c3CCN2C(=O)/C=C/c2c(-n3cnnn3)ccc(Cl)c2F)cc1 (racemic) [Example 96]
< 5	NC1CCN(c2cccc3c2CCN(C(=O)/C=C/c2c(-n4cnnn4)ccc(Cl)c2F)C3C(=O)Nc2ccc(C(=O)O)cc2)CC1 (racemic) [Example 97]
< 5	CN(C)C(=O)C1CCN(c2cccc3c2CCN(C(=O)/C=C/c2c(-n4cnnn4)ccc(Cl)c2F)C3C(=O)Nc2ccc(C(=O)O)cc2)CC1 (racemic) [Example 100]
< 5	O=C(Nc1ccc(Cl)cc1)C1c2cccc(N3CCC(N4CCCC4)CC3)c2CCN1C(=O)/C=C/c1c(-n2cnnn2)ccc(Cl)c1F (racemic) [Example 104]
< 5	CCCCOC(=O)c1ccc(NC(=O)C2c3cccc(N4CCC(N5CCCC5)CC4)c3CCN2C(=O)/C=C/c2c(-n3cnnn3)ccc(Cl)c2F)cc1 (racemic) [Example 105]
5 to 10	CCOC(=O)c1ccc(NC(=O)C2c3cccc(N4CCC5(CCN(C)C5=O)CC4)c3CCN2C(=O)/C=C/c2c(-n3cnnn3)ccc(Cl)c2F)cc1 (racemic) [Example 109]
< 5	O=C(O)c1ccc(NC(=O)C2c3cccc(N4CCC(N5CCCCC5)CC4)c3CCN2C(=O)/C=C/c2c(-n3cnnn3)ccc(Cl)c2F)cc1 (racemic) [Example 115]
< 5	CC(C)C1CCN(c2cccc3c2CCN(C(=O)/C=C/c2c(-n4cnnn4)ccc(Cl)c2F)C3C(=O)Nc2ccc(C(=O)O)cc2)CC1 (racemic) [Example 116]
< 5	CC1(C)CCN(c2cccc3c2CCN(C(=O)/C=C/c2c(-n4cnnn4)ccc(Cl)c2F)C3C(=O)Nc2ccc(C(=O)O)cc2)CC1 (racemic) [Example 117]
< 5	Cn1ncc2ccc(NC(=O)C3c4cccc(N5CCC(N6CCCC6)CC5)c4CCN3C(=O)/C=C/c3c(-n4cnnn4)ccc(Cl)c3F)cc21 (racemic) [Example 120]
< 5	O=C(O)c1ccc(NC(=O)C2c3cccc(N4CCC5(CCN(Cc6ccccc6)C5=O)CC4)c3CCN2C(=O)/C=C/c2c(-n3cnnn3)ccc(Cl)c2F)cc1 (racemic) [Example 121]
< 5	CC(C)OC(=O)c1ccc(NC(=O)C2c3cccc(N4CCC(N5CCCC5)CC4)c3CCN2C(=O)/C=C/c2c(-n3cnnn3)ccc(Cl)c2F)cc1 (racemic) [Example 122]
< 5	CC(C)COC(=O)c1ccc(NC(=O)C2c3cccc(N4CCC(N5CCCC5)CC4)c3CCN2C(=O)/C=C/c2c(-n3cnnn3)ccc(Cl)c2F)cc1 (racemic) [Example 123]
< 5	O=C(OC1CCCC1)c1ccc(NC(=O)C2c3cccc(N4CCC(N5CCCC5)CC4)c3CCN2C(=O)/C=C/c2c(-n3cnnn3)ccc(Cl)c2F)cc1 (racemic) [Example 124]
< 5	Cn1ncc2cc(NC(=O)C3c4cccc(N5CCC(N6CCCC6)CC5)c4CCN3C(=O)/C=C/c3c(-n4cnnn4)ccc(Cl)c3F)ccc21 (racemic) [Example 127]
< 5	O=C(O)c1ccc(NC(=O)C2c3cccc(N4CCC(N5CCCCC5=O)CC4)c3CCN2C(=O)/C=C/c2c(-n3cnnn3)ccc(Cl)c2F)cc1 (racemic) [Example 130]
< 5	CCOC(=O)c1ccc(NC(=O)C2c3cccc(N4CCC(C(=O)N5CCCC5)CC4)c3CCN2C(=O)/C=C/c2c(-n3cnnn3)ccc(Cl)c2F)cc1 (racemic) [Example 134]
< 5	CCOC(=O)C1CCN(c2cccc3c2CCN(C(=O)/C=C/c2c(-n4cnnn4)ccc(Cl)c2F)C3C(=O)Nc2ccc(C(=O)O)cc2)CC1 (racemic) [Example 136]
< 5	CC(=O)OC1CCN(c2cccc3c2CCN(C(=O)/C=C/c2c(-n4cnnn4)ccc(Cl)c2F)C3C(=O)Nc2ccc(C(=O)O)cc2)CC1 (racemic) [Example 137]
< 5	O=C(O)c1ccc(NC(=O)C2c3cccc(N4CCC(N5CCOCC5)CC4)c3CCN2C(=O)/C=C/c2c(-n3cnnn3)ccc(Cl)c2F)cc1 (racemic) [Example 138]
< 5	O=C(O)c1ccc(NC(=O)C2c3cccc(N4CCC(C(=O)N5CCOCC5)CC4)c3CCN2C(=O)/C=C/c2c(-n3cnnn3)ccc(Cl)c2F)cc1 (racemic) [Example 140]

— patent US10208021B2, “Substituted tetrahydroisoquinoline compounds as factor XIa inhibitors” (BRISTOL-MYERS SQUIBB COMPANY, priority 2011, dated 2019)
